Experimental data as given in patent US20230365592A1 (Agios Pharmaceuticals, Inc., priority 2022, published 2023).

target: T1, human PAH with the R408W mutation (Homo sapiens, UniProt P00439, R408W); assay: Cell Based Phenylalanine Flux Assay; conditions: A375 cells expressing human R408W PAH; 24 hrs compound incubation; 13C-Tyrosine by LC-MS; average where tested multiple times; read-out: AC50;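 note: after compound treatment, cells received sepiapterin plus isotope-labelled Phenylalanine for 4 hours, then labelled Tyrosine in the medium was quantified, 10-point 2-fold dilution series run in duplicate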
T1 construct: expressed in transfected cells
T1 sequence (P00439 1-452 R408W): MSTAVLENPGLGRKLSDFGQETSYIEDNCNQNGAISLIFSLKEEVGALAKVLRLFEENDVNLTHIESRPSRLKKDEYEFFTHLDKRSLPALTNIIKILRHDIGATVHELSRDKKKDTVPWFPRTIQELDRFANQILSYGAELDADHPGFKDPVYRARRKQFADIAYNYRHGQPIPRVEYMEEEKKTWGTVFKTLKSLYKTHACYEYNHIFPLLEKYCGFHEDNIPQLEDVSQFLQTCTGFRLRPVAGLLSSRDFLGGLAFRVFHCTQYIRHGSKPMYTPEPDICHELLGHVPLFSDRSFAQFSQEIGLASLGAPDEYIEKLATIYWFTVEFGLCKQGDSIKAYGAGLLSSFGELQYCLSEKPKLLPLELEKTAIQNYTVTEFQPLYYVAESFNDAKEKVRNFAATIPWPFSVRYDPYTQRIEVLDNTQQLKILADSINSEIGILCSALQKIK

| Structure (SMILES) | AC50 |
| --- | --- |
| Cn1nc(C(F)F)cc1C(=O)N1CCc2[nH]cnc2[C@H]1c1cc2cccc(C(F)F)n2n1 [Example 1402, (S)-(3-(difluoromethyl)-1-methyl-1H-pyrazol-5-yl)(4-(7-(difluoromethyl)pyrazolo[1,5-a]pyridin-2-yl)-6,7-dihydro-1H-imidazo[4,5-c]pyridin-5(4H)-yl)methanone] | 500 to 1000 nM |
| O=C(c1nnc(-c2ccn(C(F)F)n2)o1)N1CCc2[nH]cnc2[C@@H]1c1cc2cccc(F)n2n1 [Example 1404, (R)-(5-(1-(difluoromethyl)-1H-pyrazol-3-yl)-1,3,4-oxadiazol-2-yl)(4-(7-fluoropyrazolo[1,5-a]pyridin-2-yl)-6,7-dihydro-1H-imidazo[4,5-c]pyridin-5(4H)-yl)methanone] | 1000 to 5000 nM |
| O=C(c1nnc(-c2ccn(C(F)F)n2)o1)N1CCc2[nH]cnc2[C@H]1c1cc2cccc(F)n2n1 [Example 1405, (S)-(5-(1-(difluoromethyl)-1H-pyrazol-3-yl)-1,3,4-oxadiazol-2-yl)(4-(7-fluoropyrazolo[1,5-a]pyridin-2-yl)-6,7-dihydro-1H-imidazo[4,5-c]pyridin-5(4H)-yl)methanone] | < 500 nM |
| Cn1cc(-c2nnc(C(=O)N3CCc4[nH]cnc4[C@@H]3c3cc4cccc(C(F)F)n4n3)o2)cn1 [Example 1407, (R)-(4-(7-(difluoromethyl)pyrazolo[1,5-a]pyridin-2-yl)-6,7-dihydro-1H-imidazo[4,5-c]pyridin-5(4H)-yl)(5-(1-methyl-1H-pyrazol-4-yl)-1,3,4-oxadiazol-2-yl)methanone] | > 5000 nM |
| CC(C)(C)c1nnc(C(=O)N2CCc3[nH]cnc3[C@@H]2c2cc3c(C(F)F)cccn3n2)o1 [Example 1408, (R)-(5-(tert-butyl)-1,3,4-oxadiazol-2-yl)(4-(4-(difluoromethyl)pyrazolo[1,5-a]pyridin-2-yl)-6,7-dihydro-1H-imidazo[4,5-c]pyridin-5(4H)-yl)methanone] | 1000 to 5000 nM |
| O=C(c1nnc(-c2ncccn2)o1)N1CCc2[nH]cnc2[C@@H]1c1cc2c(Cl)cccn2n1 [Example 1410, (R)-(4-(4-chloropyrazolo[1,5-a]pyridin-2-yl)-6,7-dihydro-1H-imidazo[4,5-c]pyridin-5(4H)-yl)(5-(pyrimidin-2-yl)-1,3,4-oxadiazol-2-yl)methanone] | 1000 to 5000 nM |
| O=C(c1cnn2cc(-c3ccccn3)ccc12)N1CCc2[nH]cnc2[C@@H]1c1cc2ccccn2n1 [Example 1417, (R)-(4-(pyrazolo[1,5-a]pyridin-2-yl)-6,7-dihydro-1H-imidazo[4,5-c]pyridin-5(4H)-yl)(6-(pyridin-2-yl)pyrazolo[1,5-a]pyridin-3-yl)methanone] | 1000 to 5000 nM |
| O=C(c1nnc(-c2cccnc2)o1)N1CCc2[nH]cnc2[C@H]1c1cc2c(C(F)F)cccn2n1 [Example 1422, (S)-(4-(4-(difluoromethyl)pyrazolo[1,5-a]pyridin-2-yl)-6,7-dihydro-1H-imidazo[4,5-c]pyridin-5(4H)-yl)(5-(pyridin-3-yl)-1,3,4-oxadiazol-2-yl)methanone] | < 500 nM |
| O=C(c1nnc(-c2ncccc2F)o1)N1CCc2[nH]cnc2[C@H]1c1cc2c(C(F)F)cccn2n1 [Example 1426, (S)-(4-(4-(difluoromethyl)pyrazolo[1,5-a]pyridin-2-yl)-6,7-dihydro-1H-imidazo[4,5-c]pyridin-5(4H)-yl)(5-(3-fluoropyridin-2-yl)-1,3,4-oxadiazol-2-yl)methanone] | < 500 nM |
| O=C(c1nnc(-c2ncccc2F)o1)N1CCc2[nH]cnc2[C@@H]1c1cc2c(C(F)F)cccn2n1 [Example 1427, (R)-(4-(4-(difluoromethyl)pyrazolo[1,5-a]pyridin-2-yl)-6,7-dihydro-1H-imidazo[4,5-c]pyridin-5(4H)-yl)(5-(3-fluoropyridin-2-yl)-1,3,4-oxadiazol-2-yl)methanone] | > 5000 nM |
| Cc1cccc(-c2nnc(C(=O)N3CCc4[nH]cnc4[C@@H]3c3cc4c(C(F)(F)F)cccn4n3)o2)n1 [Example 1432, (R)-(5-(6-methylpyridin-2-yl)-1,3,4-oxadiazol-2-yl)(4-(4-(trifluoromethyl)pyrazolo[1,5-a]pyridin-2-yl)-6,7-dihydro-1H-imidazo[4,5-c]pyridin-5(4H)-yl)methanone] | 1000 to 5000 nM |
| O=C(c1nnc(-c2cnn(C(F)F)c2)o1)N1CCc2[nH]cnc2[C@@H]1c1cc2cccc(C(F)F)n2n1 [Example 1441, (R)-(5-(1-(difluoromethyl)-1H-pyrazol-4-yl)-1,3,4-oxadiazol-2-yl)(4-(7-(difluoromethyl)pyrazolo[1,5-a]pyridin-2-yl)-6,7-dihydro-1H-imidazo[4,5-c]pyridin-5(4H)-yl)methanone] | > 5000 nM |

Second part, the compound after the results:

| AC50 | Structure (SMILES) |
| --- | --- |
| 1000 to 5000 nM | Cc1cccc(-c2nnc(C(=O)N3CCc4[nH]cnc4[C@@H]3c3cc4cccc(C(F)(F)F)n4n3)o2)n1 [Example 1401, (R)-(5-(6-methylpyridin-2-yl)-1,3,4-oxadiazol-2-yl)(4-(7-(trifluoromethyl)pyrazolo[1,5-a]pyridin-2-yl)-6,7-dihydro-1H-imidazo[4,5-c]pyridin-5(4H)-yl)methanone] |
| < 500 nM | CC(C)(C)c1nnc(C(=O)N2CCc3[nH]cnc3[C@H]2c2cc3c(C(F)F)cccn3n2)o1 [Example 1409, (S)-(5-(tert-butyl)-1,3,4-oxadiazol-2-yl)(4-(4-(difluoromethyl)pyrazolo[1,5-a]pyridin-2-yl)-6,7-dihydro-1H-imidazo[4,5-c]pyridin-5(4H)-yl)methanone] |
| < 500 nM | O=C(c1nnc(-c2ncccn2)o1)N1CCc2[nH]cnc2[C@H]1c1cc2c(Cl)cccn2n1 [Example 1411, (S)-(4-(4-chloropyrazolo[1,5-a]pyridin-2-yl)-6,7-dihydro-1H-imidazo[4,5-c]pyridin-5(4H)-yl)(5-(pyrimidin-2-yl)-1,3,4-oxadiazol-2-yl)methanone] |
| 500 to 1000 nM | O=C(c1nnc(-c2ncccn2)o1)N1CCc2[nH]cnc2[C@H]1c1cc2c(C(F)F)cccn2n1 [Example 1413, (S)-(4-(4-(difluoromethyl)pyrazolo[1,5-a]pyridin-2-yl)-6,7-dihydro-1H-imidazo[4,5-c]pyridin-5(4H)-yl)(5-(pyrimidin-2-yl)-1,3,4-oxadiazol-2-yl)methanone] |
| 1000 to 5000 nM | CC(C)(C)c1nnc(C(=O)N2CCc3[nH]cnc3[C@@H]2c2cc3cccc(C(F)F)n3n2)o1 [Example 1418, (R)-(5-(tert-butyl)-1,3,4-oxadiazol-2-yl)(4-(7-(difluoromethyl)pyrazolo[1,5-a]pyridin-2-yl)-6,7-dihydro-1H-imidazo[4,5-c]pyridin-5(4H)-yl)methanone] |
| < 500 nM | O=C(c1nnc(-c2ccccn2)o1)N1CCc2[nH]cnc2[C@H]1c1cc2cccc(C(F)F)n2n1 [Example 1421, (S)-(4-(7-(difluoromethyl)pyrazolo[1,5-a]pyridin-2-yl)-6,7-dihydro-1H-imidazo[4,5-c]pyridin-5(4H)-yl)(5-(pyridin-2-yl)-1,3,4-oxadiazol-2-yl)methanone] |
| 1000 to 5000 nM | COc1ccc(-c2nnc(C(=O)N3CCc4[nH]cnc4[C@@H]3c3cc4c(C(F)F)cccn4n3)o2)nc1 [Example 1425, (R)-(4-(4-(difluoromethyl)pyrazolo[1,5-a]pyridin-2-yl)-6,7-dihydro-1H-imidazo[4,5-c]pyridin-5(4H)-yl)(5-(5-methoxypyridin-2-yl)-1,3,4-oxadiazol-2-yl)methanone] |
| > 5000 nM | Cc1cccc(-c2nnc(C(=O)N3CCc4[nH]cnc4[C@@H]3c3cc4c(Cl)cccn4n3)o2)n1 [Example 1430, (R)-(4-(4-chloropyrazolo[1,5-a]pyridin-2-yl)-6,7-dihydro-1H-imidazo[4,5-c]pyridin-5(4H)-yl)(5-(6-methylpyridin-2-yl)-1,3,4-oxadiazol-2-yl)methanone] |
| 500 to 1000 nM | Cn1ccc(-c2nnc(C(=O)N3CCc4[nH]cnc4[C@H]3c3cc4cccc(C(F)F)n4n3)o2)n1 [Example 1438, (S)-(4-(7-(difluoromethyl)pyrazolo[1,5-a]pyridin-2-yl)-6,7-dihydro-1H-imidazo[4,5-c]pyridin-5(4H)-yl)(5-(1-methyl-1H-pyrazol-3-yl)-1,3,4-oxadiazol-2-yl)methanone] |
| > 5000 nM | Cn1ccc(-c2nnc(C(=O)N3CCc4[nH]cnc4[C@@H]3c3cc4cccc(C(F)F)n4n3)o2)n1 [Example 1439, (R)-(4-(7-(difluoromethyl)pyrazolo[1,5-a]pyridin-2-yl)-6,7-dihydro-1H-imidazo[4,5-c]pyridin-5(4H)-yl)(5-(1-methyl-1H-pyrazol-3-yl)-1,3,4-oxadiazol-2-yl)methanone] |
| 500 to 1000 nM | O=C(c1nnc(-c2cnn(C(F)F)c2)o1)N1CCc2[nH]cnc2[C@H]1c1cc2cccc(C(F)F)n2n1 [Example 1440, (S)-(5-(1-(difluoromethyl)-1H-pyrazol-4-yl)-1,3,4-oxadiazol-2-yl)(4-(7-(difluoromethyl)pyrazolo[1,5-a]pyridin-2-yl)-6,7-dihydro-1H-imidazo[4,5-c]pyridin-5(4H)-yl)methanone] |
| < 500 nM | O=C(c1nnc(-c2ccn(C(F)F)n2)o1)N1CCc2[nH]cnc2[C@H]1c1cc2cccc(C(F)F)n2n1 [Example 1442, (S)-(5-(1-(difluoromethyl)-1H-pyrazol-3-yl)-1,3,4-oxadiazol-2-yl)(4-(7-(difluoromethyl)pyrazolo[1,5-a]pyridin-2-yl)-6,7-dihydro-1H-imidazo[4,5-c]pyridin-5(4H)-yl)methanone] |
